Measurements as given in patent publication US10632130B2, “Dehydroandrosterol and methods of using the same” (A[…], LLC, priority 2016, dated 2020).
Where two headings read alike, the source gives them in different places.

Columns and labels:
[1] = testosterone as comparative standard; estimated; cited from earlier work
[2] = system: human, male volunteers
From the text: Two human, male volunteers were selected to trial the encapsulated DHA material by daily oral administration. They were allowed to select their own serving schedules and serving sizes (within reason of extrapolated values), provided they be consistent and document the compliance of their regimens. Both were of mature age, not naive to various exogenously supplied androgens, and in good general health. Food and exercise routine was not modified from normal during the testing period, so as to avoid introduction of confounding variables.
In particular, Trial Participant #1 was a person who took five capsules a day (100 mg/day DHA) of the composition for sixteen weeks. […] Trial Participant #2 was a person who took four capsules a day (80 mg/day DHA) of the composition for six weeks.

[3] = system: goats
Protocol: Caprine studies were also performed in two test animals. The test animals selected were monozygous male twins, castrated and placed in separate pens not later than six weeks after birth.
At approximately three months of age, one of these two goats was selected to receive daily DHA in a single, bolus, oral dose. The other goat was not given DHA, and served as the control. All parameters were equalized (pen size, ambient temperature, once daily exercise for 15 minutes on tread mill, 30 minute “play” time with other goats, twice daily ad-lib feeding of identical source feed, etc.)
Dosing was initiated in the test goat at 50 mg. After two weeks, the dose was increased to 100 mg, then after another two weeks increased to 200 mg, then maintained at that dose for an additional four weeks.
At the end of the eight week testing period, the two test animals were weighed to establish gains made from their original base-line weight at the beginning of the study.

[4] = system: human, male volunteers; remark: listed apart in the source
Protocol: Two human, male volunteers were selected to pre-trial the DHA material by single daily oral administration. Both were of mature age, not naive to various exogenously supplied androgens, and in good general health. Food and exercise routine was not modified from normal during the testing period, so as to avoid introduction of confounding variables.
Doses were ramped 50 mg weekly, beginning at 50 mg and concluding at 200 mg.
One of the test subjects (Subject #2) took a two week washout after this initial testing regiment and resumed testing at 100 mg, ramping the dose weekly as prior but using 100 mg increments, such that at four weeks of testing the subject was using 400 mg.
After another two week washout period, Subject #2 elected to resume testing of DHA with another related compound, androsterone, at various doses. Over several more months, this DHA/androsterone ratio was altered over a range and maintained at various ratios for not less than five days at a time before modification.

[5] = Trial Participant #2, 80 mg/day DHA, six weeks

In the case of `C[C@]12CC[C@H]3[C@@H](CC=C4C[C@H](O)CC[C@@]43C)[C@@H]1CC[C@@H]2O` [DHA, 5-Androsten-3a,17b-diol], the “relative androgenic activity equivalent to that of testosterone” value [1] is given as “approximately 43%”, the weight gained ([2]; Trial Participant #1, 100 mg/day DHA, sixteen weeks) is given as “fifteen” and the “bench press at the end” value ([2]; Trial Participant #1, 100 mg/day DHA, sixteen weeks, 270 pounds at the beginning) is given as 340. The “single repetition leg squats at the end” value ([2]; Trial Participant #1, 100 mg/day DHA, sixteen weeks, 430 pounds at the beginning) was 545 pounds, the “deadlift at the end” value ([2]; Trial Participant #1, 100 mg/day DHA, sixteen weeks, 455 pounds at the beginning) was 560 pounds and the “improvement of all major lifting measurements from start to finish” value [2, 5] was 20-25 pounds. For the same compound, the weight gained [2, 5] was “twelve”, the “male behavior in castrate male” value ([3]; test goat in play pen with superior goats) was “Alpha-male behavior was indeed noted to be established” and the “appetite and food intake” value ([3]; test goat versus control) was “greater appetite and food intake”. For the same compound, the “weight gain relative to control goat” value ([3]; test goat, eight weeks) was “approximately double”, the general weight gain ([3]; test goat, eight weeks, from base-line 46 pounds, control 33%) was 59% and the “weight at end of testing” value ([3]; test goat, eight weeks, oral 50 mg, then 100 mg, then 200 mg daily, start weight 46 pounds, control 61 pounds) was 73 pounds. The “reported effects of consumer use” value was “increases in strength, lean muscle gains, increased fat loss, appetite increase, libido boost, increased energy, and increased muscle hardness”, the reported side effects (consumer use) was “slight acne and slight lethargy” and the “androgenic synergism with androsterone” value ([4]; Subject #2, extended testing, co-administered androsterone over a wide dose range) was “punctuated androgenic synergism”. For the same compound, the “dose dependence of effects” value ([4]; both test subjects) was “proportional to dose in a fairly linear fashion”, the “parameters associated with enhanced androgen status (muscle hardness/fullness, strength)” value ([4]; both test subjects) was “distinct improvements” and the “side-effects characteristic of exogenous hormones” value ([4]; both test subjects, acne only noted at the higher doses tested) was “mild acne being the only undesirable effect”. For the same compound, the “subjective improvements, as defined by weight, strength, and/or muscle hardness gain” value ([4]; both test subjects, one month, oral doses ramped 50 mg weekly from 50 mg to 200 mg) was “subjective improvements”.
